From patent US4399067A
Converted amounts (≈) assume the structure as drawn.

Assays:
[1] = system: Bacillus subtilis ATCC 6633; experiment: Agar-plate disc-diffusion test; format: cell-based; conditions: compound at 1 mg/ml, 7-mm disc, 24-48 hours at 25-37° C.
Description: | ^b Grown on minimal nutrient agar

Streptococcus pyogenes = experiment: In vivo activity against experimental bacterial infection in mice; conditions: two doses, dose protecting fifty percent of the test animals
[2] = system: Streptococcus pyogenes C203; format: cell-based; conditions: agar-dilution
Description: (§1) The results of the antibacterial testing of a representative compound of formula 1, using the standard agar-dilution test, are summarized in Table II.

[3] = system: Staphylococcus aureus X1.1; format: cell-based; conditions: agar-dilution
Description: as §1

[4] = system: Staphylococcus epidermidis EPI1; format: cell-based; conditions: agar-dilution
Description: as §1

[5] = system: Staphylococcus epidermidis EPI2; format: cell-based; conditions: agar-dilution
Description: as §1

[6] = system: Streptococcus Group D X66; format: cell-based; conditions: agar-dilution
Description: as §1

Streptococcus Group 9960 = format: cell-based; conditions: agar-dilution
Description: as §1

[7] = Acute toxicity, intravenous, mice; conditions: mouse, in vivo, administered intravenously to mice
[8] = system: Staphylococcus aureus X400; format: cell-based; conditions: agar-dilution; methicillin-resistant strain
Description: as §1
^c Methicillinresistant-strain

[9] = system: Staphylococcus aureus V41; format: cell-based; conditions: agar-dilution; penicillin-resistant strain
Description: as §1
^b Pencillinresistant strain

Staphylococcus aureus = experiment: In vivo activity against experimental bacterial infection in mice; conditions: two doses, dose protecting fifty percent of the test animals

Structure (SMILES) | Size of Zone of Inhibition, B. subtilis ATCC 6633 grown on minimal nutrient agar [1] | ED50, Streptococcus pyogenes, Oral (Streptococcus pyogenes; oral) | ED50, Streptococcus pyogenes, Subcutaneous (Streptococcus pyogenes; subcutaneous) | MIC, Streptococcus pyogenes C203 [2] | MIC, Staphylococcus aureus X1.1 [3] | MIC, Staphylococcus epidermidis EPI1 [4] | MIC, Staphylococcus epidermidis EPI2 [5] | MIC, Streptococcus Group D X66 [6] | MIC, Streptococcus Group 9960 (Streptococcus Group 9960) | LD50 [7] | MIC, Staphylococcus aureus X400 [8] | MIC, Staphylococcus aureus V41 [9] | ED50, Staphylococcus aureus, Subcutaneous (Staphylococcus aureus)
CCCCCCCCCCCCOc1ccc(C(=O)N[C@@H](Cc2c[nH]c3ccccc23)C(=O)N[C@@H](CC(N)=O)C(=O)N[C@@H](CC(=O)O)C(=O)N[C@@H]2C(=O)NCC(=O)N[C@@H](CCCNC(=O)OC(C)(C)C)C(=O)N[C@@H](CC(=O)O)C(=O)N[C@H](C)C(=O)N[C@@H](CC(=O)O)C(=O)NCC(=O)N[C@H](CO)C(=O)N[C@@H]([C@H](C)CC(=O)O)C(=O)N[C@@H](CC(=O)c3ccccc3N)C(=O)O[C@@H]2C)cc1 [Example 1] | 22 mm | – | – | – | – | – | – | – | – | – | – | – | –
CCCCCCCCCCCCOc1ccc(C(=O)N[C@@H](Cc2c[nH]c3ccccc23)C(=O)N[C@@H](CC(N)=O)C(=O)N[C@@H](CC(=O)O)C(=O)N[C@@H]2C(=O)NCC(=O)N[C@@H](CCCN)C(=O)N[C@@H](CC(=O)O)C(=O)N[C@H](C)C(=O)N[C@@H](CC(=O)O)C(=O)NCC(=O)N[C@H](CO)C(=O)N[C@@H]([C@H](C)CC(=O)O)C(=O)N[C@@H](CC(=O)c3ccccc3N)C(=O)O[C@@H]2C)cc1 [Example 2, NTrp -p-(n-dodecyloxy)benzoyl-A-21978C Nucleus] | 20 mm | > 200 mg/kg × 2 | 0.31 mg/kg × 2 | 0.25 µg/mL (≈ 0.142 µM) | 1 µg/mL (≈ 0.57 µM) | 4 µg/mL (≈ 2.28 µM) | 2 µg/mL (≈ 1.14 µM) | 2 µg/mL (≈ 1.14 µM) | 1 µg/mL (≈ 0.57 µM) | 67.5 mg/kg | 2 µg/mL (≈ 1.14 µM) | 1 µg/mL (≈ 0.57 µM) | 3.35 mg/kg × 2
